Results on 46 compounds are retold here after ChEMBL document CHEMBL1133620, “Selective cyclooxygenase-2 inhibitors: heteroaryl modified 1,2-diarylimidazoles are potent, orally active antiinflammatory agents” (J Med Chem, 2000).

Series [1] is filed under the species Rattus norvegicus. The note with it: in vivo, po, 100 mg/kg.
The species entered for series [2] is Rattus norvegicus. The experiment in a line: animal or person. To be noted: read-out: Inhibition.
Series [3] is filed under the species Homo sapiens. As to the kind of experiment: tissue or blood.
The species named for series [4] is Rattus norvegicus. The experiment in a line: animal or person. In kind it is functional.
The species entered for series [5] is Homo sapiens. As to the kind of experiment: tissue or blood. The source holds these as a separate data set.
Series [6] is filed under the species Rattus norvegicus. The experiment in a line: animal or person. In kind it is functional. This is another data set of the same source.
The species entered for series [7] is Rattus norvegicus. To be noted: in vivo, po, 100 mg/kg. This is another data set of the same source.
A short description of series [8]: in vivo. To be noted: rat, iv, 10 mg/kg.
The species entered for series [9] is Rattus norvegicus. The experiment in a line: animal or person. Format: functional. The source holds these as a separate data set.
Series [10] deals with Prostaglandin G/H synthase 1 (Homo sapiens, UniProt P23219).
For series [11], the species on record is Rattus norvegicus. The note with it: in vivo, po, 100 mg/kg. This is another data set of the same source.
The species named for series [12] is Rattus norvegicus. To be noted: in vivo, po, 100 mg/kg. This is another data set of the same source.
The nature of series [13]: in vivo. The note with it: rat, iv, 10 mg/kg. This is another data set of the same source.
Series [14] is filed under the species Rattus norvegicus. The note with it: in vivo, po, 100 mg/kg. This is another data set of the same source.
Series [15] is described as follows: in vivo. To be noted: rat, iv, 10 mg/kg. This is another data set of the same source.
For series [16], the species on record is Rattus norvegicus. The note with it: in vivo, po, 16 mg/kg.
The species named for series [17] is Rattus norvegicus. To be noted: in vivo, po, 16 mg/kg. The source holds these as a separate data set.
Series [18] is described as follows: in vivo. To be noted: rat, iv, 2 mg/kg.
The species entered for series [19] is Rattus norvegicus. To be noted: in vivo, po, 100 mg/kg. The source holds these as a separate data set.
The mark [20] stands for this setting: Rattus norvegicus, read-out: ED50.

Where only a bound is given, the exact number is not on record here.

Prostaglandin G/H synthase 1, sequence (P23219 whole entry): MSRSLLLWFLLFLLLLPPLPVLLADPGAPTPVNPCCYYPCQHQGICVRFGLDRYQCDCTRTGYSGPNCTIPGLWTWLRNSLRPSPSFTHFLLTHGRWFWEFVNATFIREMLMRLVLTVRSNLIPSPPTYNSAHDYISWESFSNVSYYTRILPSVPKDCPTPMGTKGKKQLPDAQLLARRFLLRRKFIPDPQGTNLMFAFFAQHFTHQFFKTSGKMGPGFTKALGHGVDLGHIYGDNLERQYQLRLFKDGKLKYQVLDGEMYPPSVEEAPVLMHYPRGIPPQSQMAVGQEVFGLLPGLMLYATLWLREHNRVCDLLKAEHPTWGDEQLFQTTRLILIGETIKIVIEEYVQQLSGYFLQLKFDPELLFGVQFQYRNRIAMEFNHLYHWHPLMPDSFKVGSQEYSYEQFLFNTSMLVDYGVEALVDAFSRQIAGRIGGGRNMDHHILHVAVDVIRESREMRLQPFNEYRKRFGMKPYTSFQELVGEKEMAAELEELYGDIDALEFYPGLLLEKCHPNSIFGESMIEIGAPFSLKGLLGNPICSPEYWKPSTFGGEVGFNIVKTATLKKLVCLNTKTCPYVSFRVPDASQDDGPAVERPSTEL

As to `CS(=O)(=O)c1ccc(-n2cc(C(F)(F)F)nc2-c2cccnc2)cc1`, the “No. of animals with damage” value in series [1] and in series [7] was 0 each time. Also, in [2], the inhibition in vivo at 2 mg/kg is 100%. In addition, the IC50 worked out at 41.6 µM in series [3] and 0.2 µM in [5]. The ED50 in series [4] is 0.25 mg/kg; in series [6], 8.2 mg/kg; in series [9] (setting [20]), 5.4 mg/kg. The compound further gave a half-life in series [8] of 11.6 h.

In the case of `CS(=O)(=O)c1ccc(-n2cc(CO)nc2-c2cccnc2)cc1`, the IC50 in series [10] was over 1000 µM.

As for `COc1cncc(-c2nc(C(F)(F)F)cn2-c2ccc(S(C)(=O)=O)cc2)c1`, the IC50 in [10] was over 100 µM.

Consider `CS(=O)(=O)c1ccc(-n2cc(C(F)(F)F)nc2-c2cncc(Br)c2)cc1`, for which the IC50 in series [10] was over 1000 µM. Besides, the inhibition in vivo at 2 mg/kg in [2] was found to be 90%.

On to `Cc1ccnc(-c2nc(C(F)(F)F)cn2-c2ccc(S(C)(=O)=O)cc2)c1`, for which, in [2], the inhibition in vivo at 2 mg/kg worked out at 84%.

`NS(=O)(=O)c1ccc(-n2cc(C(F)(F)F)nc2-c2cncc(Br)c2)cc1`: the inhibition in vivo at 2 mg/kg in series [2] worked out at 26%.

As for `Cc1ccccc1-c1nc(C(F)(F)F)cn1-c1ccc(S(C)(=O)=O)cc1`, the ED50 in series [9] (setting [20]) stood at 18 mg/kg.

In series [10], `CS(=O)(=O)c1ccc(-n2cc(C(F)F)nc2-c2cccnc2)cc1` registered an IC50 of over 100 µM.

Turning to `CS(=O)(=O)c1ccc(-n2cc(C(F)(F)F)nc2-c2cnc3ccccc3c2)cc1`, in series [2], the inhibition in vivo at 2 mg/kg was 90%.

`Cc1ccncc1-c1nc(C(F)(F)F)cn1-c1ccc(S(N)(=O)=O)cc1` registered an IC50 in series [10] of over 100 µM.

For `CS(=O)(=O)c1ccc(-n2cc(C(F)(F)F)nc2-c2cc3ccccc3cn2)cc1`, in [10], the 50% inhibitory concentration (IC50) was found to be 32 µM.

As for `Cc1cccc(-c2nc(C(F)(F)F)cn2-c2ccc(S(C)(=O)=O)cc2)n1`, the inhibition in vivo at 2 mg/kg in [2] amounted to 92%.

On to `COc1ccc(-c2nc(C(F)(F)F)cn2-c2ccc(S(C)(=O)=O)cc2)cn1`, for which the inhibition in vivo at 2 mg/kg in series [2] turned out to be 100%.

Turning to `Cc1cccnc1-c1nc(C(F)(F)F)cn1-c1ccc(S(N)(=O)=O)cc1`, the inhibition in vivo at 2 mg/kg in series [2] stood at 100%.

`Cc1ccc(-c2nc(C(F)(F)F)cn2-c2ccc(S(N)(=O)=O)cc2)nc1` came in with an IC50 in [10] of 302 µM. For the same compound, in series [2], the inhibition in vivo at 2 mg/kg is 100%.

The compound `CS(=O)(=O)c1ccc(-n2cc(C(F)(F)F)nc2-c2cc(Br)cs2)cc1` registered an IC50 in [10] of over 1000 µM. Besides, in series [2], the inhibition in vivo at 2 mg/kg turned out to be 75%.

Regarding `CS(=O)(=O)c1ccc(-n2cc(C(F)(F)F)nc2-c2ccccn2)cc1`, the figures for the IC50 in series [10], in [3] and in series [5] were over 1000 µM, over 10 µM and 0.24 µM, respectively. The inhibition in vivo at 2 mg/kg in [2] was found to be 100%.

Compound `Cc1nc(-c2nc(C(F)(F)F)cn2-c2ccc(S(C)(=O)=O)cc2)co1` showed an IC50 in series [10] of over 100 µM. Besides, in [2], the inhibition in vivo at 2 mg/kg was 0%.

For `Cn1cc(-c2nc(C(F)(F)F)cn2-c2ccc(S(C)(=O)=O)cc2)c2ccccc21`, the inhibition in vivo at 2 mg/kg in series [2] turned out to be 0%.

As to `CS(=O)(=O)c1ccc(-n2cc(C(F)(F)F)nc2-c2ccccc2)cc1`, the ED50 in [9] (setting [20]) is 0.15 mg/kg.

As for `Cc1ncccc1-c1nc(C(F)(F)F)cn1-c1ccc(S(N)(=O)=O)cc1`, the inhibition in vivo at 2 mg/kg in [2] came to 100%. Besides, the ED50 was 1 mg/kg in series [4], 18 mg/kg in series [6] and 6.9 mg/kg in series [9] (setting [20]). The “No. of animals with damage” value in [11] and in series [12] was 0 each time. This compound showed a half-life in [13] of 4.85 h.

For `NS(=O)(=O)c1ccc(-n2cc(C(F)(F)F)nc2-c2cccs2)cc1`, in series [2], the inhibition in vivo at 2 mg/kg was 95%.

Turning to `Cc1ccc(-c2nc(C(F)(F)F)cn2-c2ccc(S(C)(=O)=O)cc2)cn1`, the inhibition in vivo at 2 mg/kg in series [2] turned out to be 93%. The ED50 was determined as 0.2 mg/kg in [4], 33 mg/kg in series [6] and 41 mg/kg in [9] (setting [20]).

The compound `Cc1csc(-c2nc(C(F)(F)F)cn2-c2ccc(S(N)(=O)=O)cc2)n1` showed an IC50 in [10] of over 1000 µM. Further, the inhibition in vivo at 2 mg/kg in series [2] turned out to be 100%. Besides, the ED50 is 0.33 mg/kg in series [4], 18.5 mg/kg in [6] and 13.4 mg/kg in series [9] (setting [20]).

On to `NS(=O)(=O)c1ccc(-n2cc(C(F)(F)F)nc2-c2cccnc2)cc1`, for which the half-inhibitory concentration (IC50) in series [10] is over 1000 µM. Also, the inhibition in vivo at 2 mg/kg in series [2] turned out to be 100%.

The compound `Cc1ccncc1-c1nc(C(F)(F)F)cn1-c1ccc(S(C)(=O)=O)cc1` showed an IC50 in series [10] of over 100 µM.

For `Cc1cncc(-c2nc(C(F)(F)F)cn2-c2ccc(S(N)(=O)=O)cc2)c1`, the IC50 in series [10] is over 1000 µM. In addition, the “No. of animals with damage” value in series [1] and in [14] was 0 throughout. For the same compound, in series [2], the inhibition in vivo at 2 mg/kg is 96%. Further, the ED50 worked out at 0.67 mg/kg in series [4], 32 mg/kg in series [6] and 7.5 mg/kg in series [9] (setting [20]). Also, the half-life in series [15] was 4.96 h.

`COc1ccc2c(c1)c(CC(=O)O)c(C)n2C(=O)c1ccc(Cl)cc1` [INDOMETHACIN]: the “No. of animals with damage” value in [16] and in series [17] was 6 throughout. This compound had an ED50 in [4] of 0.1 mg/kg.

`Cc1ccnc(-c2nc(C(F)(F)F)cn2-c2ccc(S(N)(=O)=O)cc2)c1`: the IC50 in series [10] was determined as 84 µM. Besides, the inhibition in vivo at 2 mg/kg in [2] came to 75%.

In series [10], `Cc1cc(-c2nc(C(F)(F)F)cn2-c2ccc(S(N)(=O)=O)cc2)no1` gave an IC50 of over 1000 µM. In series [2], the inhibition in vivo at 2 mg/kg was determined as 92%.

With `Cc1ccc(-c2nc(C(F)(F)F)cn2-c2ccc(S(N)(=O)=O)cc2)cn1`, in series [2], the inhibition in vivo at 2 mg/kg turned out to be 100%.

In turn, `CS(=O)(=O)c1ccc(-n2cc(C(F)(F)F)nc2-c2cccc3c2OCO3)cc1` gave an IC50 in series [10] of over 100 µM. For the same compound, the inhibition in vivo at 2 mg/kg in series [2] turned out to be 11%.

Take `Cc1ccc(-c2nc(C(F)(F)F)cn2-c2ccc(S(C)(=O)=O)cc2)nc1`: the inhibition in vivo at 2 mg/kg in [2] was 97%. In addition, the ED50 was 1 mg/kg in series [4] and 20 mg/kg in series [6].

Regarding `Cc1ncccc1-c1nc(C(F)(F)F)cn1-c1ccc(S(C)(=O)=O)cc1`, the IC50 in series [10] was over 100 µM. In series [2], the inhibition in vivo at 2 mg/kg was 81%.

In series [18], `Cc1nc(-c2nc(C(F)(F)F)cn2-c2ccc(S(N)(=O)=O)cc2)cs1` had a half-life of 3.4 h. The “No. of animals with damage” value in series [1] and in series [19] was 0 throughout. Also, the inhibition in vivo at 2 mg/kg in series [2] stood at 100%. The figures for the ED50 in [4], in series [6] and in series [9] (setting [20]) were 0.57 mg/kg, 14 mg/kg and 13.4 mg/kg, respectively.

Regarding `Cc1cncc(-c2nc(C(F)(F)F)cn2-c2ccc(S(C)(=O)=O)cc2)c1`, in [2], the inhibition in vivo at 2 mg/kg amounted to 75%.

As for `CS(=O)(=O)c1ccc(-n2cc(C(F)(F)F)nc2-c2cccs2)cc1`, the inhibition in vivo at 2 mg/kg in series [2] came to 24%.

Turning to `Cc1nc(-c2nc(C(F)(F)F)cn2-c2ccc(S(C)(=O)=O)cc2)cs1`, the inhibition in vivo at 2 mg/kg in series [2] is 73%.

With `CS(=O)(=O)c1ccc(-n2cc(C(F)(F)F)nc2-c2nccc3ccccc23)cc1`, the inhibition in vivo at 2 mg/kg in [2] came to 60%.

In the case of `Cc1cn(-c2ccc(S(C)(=O)=O)cc2)c(-c2cccnc2)n1`, in series [10], the IC50 was over 100 µM.

On to `Cc1cccnc1-c1nc(C(F)(F)F)cn1-c1ccc(S(C)(=O)=O)cc1`, for which the inhibition in vivo at 2 mg/kg in [2] was determined as 100%. Also, the ED50 in [4] stood at 0.3 mg/kg; in series [9] it was 35%.

As to `Cc1ncc(-c2nc(C(F)(F)F)cn2-c2ccc(S(N)(=O)=O)cc2)s1`, the IC50 in series [10] was over 1000 µM. Also, the inhibition in vivo at 2 mg/kg in [2] was 75%.

Compound `CS(=O)(=O)c1ccc(-n2cc(C#N)nc2-c2cccnc2)cc1` showed an IC50 in series [10] of over 100 µM.

Consider `NS(=O)(=O)c1ccc(-n2cc(C(F)F)nc2-c2cccnc2)cc1`, for which the IC50 in series [10] is over 100 µM. Moreover, the inhibition in vivo at 2 mg/kg in series [2] is 19%.

With `Cc1ccsc1-c1nc(C(F)(F)F)cn1-c1ccc(S(C)(=O)=O)cc1`, the IC50 in [10] is over 1000 µM. Moreover, the inhibition in vivo at 2 mg/kg in series [2] came to 11%.

Consider `Cc1cccc(-c2nc(C(F)(F)F)cn2-c2ccc(S(N)(=O)=O)cc2)n1`, for which the “No. of animals with damage” value in [1] and in series [14] was 0 in each case. Moreover, the inhibition in vivo at 2 mg/kg in series [2] was determined as 100%. The ED50 in series [4] came to 0.64 mg/kg; in [6], 20.3 mg/kg; in series [9] (setting [20]), 8.2 mg/kg.

The IC50 is the concentration at which inhibition is half-maximal. High values mean weaker potency in that assay, low ones greater potency in that assay. As a reminder, the half-life is the time in which the quantity being followed falls by half.
